Assay results reported in patent US10683216B2, “Selective adsorbent fabric for water purification” (Chemica Technologies, Inc., priority 2013, dated 2020).

Assays:
[1] = Kinetics of adsorption of organic toxins to ACF-OH in Standard Synthetic Test Water; conditions: STW, pH 6.9~7.0; for ACF-OH 50% (estimated time to achieve designated toxin removal): 50% removal; for ACF-OH removal reached, in brackets in the >95% column: >95% not reached; for ACF-OH >95% (estimated time to achieve designated toxin removal): >95% removal
[2] = Kinetics of adsorption of organic toxins to ACF-SBX in Standard Synthetic Test Water; conditions: STW, pH 6.9~7.0; for ACF-SBX 50% (estimated time to achieve designated toxin removal): 50% removal; for ACF-SBX >95% (estimated time to achieve designated toxin removal): >95% removal
[3] = Kinetics of adsorption of organic toxins to ACF-H in Standard Synthetic Test Water; conditions: STW, pH 6.9~7.0; for ACF-H 50% (estimated time to achieve designated toxin removal): 50% removal; for ACF-H >95% (estimated time to achieve designated toxin removal): >95% removal
[4] = physchem
[5] = Log P (logarithm of measured partition coefficient)

Row | Structure (SMILES) | ACF-OH 50% (estimated time to achieve designated toxin removal) [1] [min] | ACF-OH removal reached, in brackets in the >95% column [1] | ACF-SBX 50% (estimated time to achieve designated toxin removal) [2] [min] | ACF-SBX >95% (estimated time to achieve designated toxin removal) [2] [min] | ACF-H 50% (estimated time to achieve designated toxin removal) [3] | ACF-H >95% (estimated time to achieve designated toxin removal) [3] [min] | logP [4] | ACF-OH >95% (estimated time to achieve designated toxin removal) [1] [min] | logP [5] | ACF-H removal reached, in brackets in the >95% column ([3]; >95% not reached) | Log P ([5]; logarithm of measured partition coefficient)
1 | Oc1ccc(Cl)cc1Cl [2,4-dichlorophenol] | 2.6 | (92%) | 2.3 | 30.0 | 1.5 min | 30.0 | 3.17 |  |  |  | 
2 | O=[N+]([O-])c1ccc(O)cc1 [4-nitrophenol] | 5.0 |  | 1.5 | 20.0 | 0.8 min | 20.0 |  | 60.0 |  |  | 
3 | CCCCCCCCCc1ccc(O)cc1 [4-nonylphenol] | 57.0 | (73%) | 5.0 | 45.0 | 2.0 min | 30.0 | 5.76 |  |  |  | 
4 | C[C@]12CC[C@@H]3c4ccc(O)cc4CC[C@H]3[C@@H]1CC[C@@H]2O [17β-estradiol] | 0.5 |  | 0.5 | 10.0 | 0.5 min | 10.0 |  | 50.0 |  |  | 
5 | CCCCC(CC)COC(=O)c1ccccc1C(=O)OCC(CC)CCCC (stereo not shown) [DEHP, bis(2-ethylhexyl)phthalate] | 43.3 | (92%) | 3.8 | 20.0 | 20.0 min | 80.0 |  |  | 7.8 |  | 
6 | CCN(CC)N=O [NDEA, N-nitrosodiethylamine] | 30.0 | (59%) | 4.6 | 60.0 | 3.8 min |  | 0.48 |  |  | (93%) | 
7 | c1ccc2cc3ccccc3cc2c1 [anthracene] | 0.4 |  | 0.4 | 12.5 | ^♦0.5 min | 53.0 |  | 30.0 |  |  | 
8 | CCNc1nc(Cl)nc(NC(C)C)n1 [atrazine] | 6.0 | (90%) | 1.6 | 10.0 | 2.0 min | 20.0 | 2.61 |  |  |  | 
9 | CC(C)(c1ccc(O)cc1)c1ccc(O)cc1 [bisphenol A] | 45.0 | (70%) | 4.0 | 30.0 | 5.0 min | 30.0 | 3.32 |  |  |  | 
10 | Cc1ccc(S(=O)(=O)[N-]Cl)cc1.[Na+] [chloramine-T] | 50.0 | (82%) | 3.3 | 25.0 | 3.3 min | 25.0 |  |  |  |  | 
11 | Clc1ccccc1 [chlorobenzene] | 0.3 |  | 0.3 | 2.0 | 0.3 min | 2.0 |  | 2.0 |  |  | 
12 | Brc1c(Br)c(Br)c(Oc2c(Br)c(Br)c(Br)c(Br)c2Br)c(Br)c1Br [deca-BDE, decabromodiphenyl ether] |  |  | 0.5 |  | 0.4 min |  | 9.97 |  |  |  | 
13 | CCOC(=O)c1ccccc1C(=O)OCC [diethyl phthalate] | 60.0 | (69%) | 3.5 | 25.0 | 5.0 min | 50.0 | 2.42 |  |  |  | 
14 | CN(C)C(=O)Nc1ccc(Cl)c(Cl)c1 [diuron] | 30.0 |  | 3.0 | 15.0 | 3.0 min | 15.0 |  | 55.0 |  |  | 
15 | CCc1ccccc1 [ethylbenzene] | 0.3 |  | 0.3 |  | 0.3 min |  |  | 0.5 |  |  | 
16 | Clc1ccccc1Cl [o-dichlorobenzene] | 1.5 |  | 0.8 | 3.0 | 1.5 min | 3.0 | 3.38 | 3.0 |  |  | 
17 | Cc1ccc(O)cc1 [p-cresol] |  |  |  |  |  |  | 1.97 |  |  |  | 
18 | Clc1ccc(Cl)cc1 [p-dichlorobenzene] | 1.0 |  | 1.0 | 2.0 | 1.0 min | 2.0 |  | 2.0 |  |  | 3.44
19 | Oc1cc(Cl)ccc1Oc1ccc(Cl)cc1Cl [triclosan] | 26.0 | (91%) | 1.7 | 46.7 | 2.5 min | 55.0 |  |  | 4.53 |  | 
20 | O=c1[nH]c(=O)c2[nH]c(=O)[nH]c2[nH]1 [uric acid] | 15.0 |  | 3.0 | 30.0 | 3.0 min | 30.0 |  | 60.0 | -2.92 |  | 
